Where only a bound is given, the exact number is not on record here.

The experiment has as its target MAPK14 (human) (UniProt Q16539). Kind of experiment: Assessment of MAPK14 Kinase Activity.

Chain of MAPK14 (human) (Q16539 whole entry, looked up): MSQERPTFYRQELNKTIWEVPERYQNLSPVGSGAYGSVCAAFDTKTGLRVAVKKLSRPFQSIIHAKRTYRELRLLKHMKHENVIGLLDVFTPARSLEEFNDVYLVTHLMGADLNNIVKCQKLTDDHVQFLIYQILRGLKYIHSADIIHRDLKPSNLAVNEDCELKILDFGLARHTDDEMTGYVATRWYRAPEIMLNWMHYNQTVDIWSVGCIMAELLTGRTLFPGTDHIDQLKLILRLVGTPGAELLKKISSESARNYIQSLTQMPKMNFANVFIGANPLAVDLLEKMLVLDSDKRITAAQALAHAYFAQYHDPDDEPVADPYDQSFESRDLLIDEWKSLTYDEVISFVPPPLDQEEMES

As to `CCc1ccc(-c2cc(NC(=O)Nc3cn(C(C)(C)C)nc3C(=O)N3CCN(C)C(=O)C3(C)C)ccc2C)cn1`, the IC50 (as a rule, the concentration needed to halve the response being measured) is below 100 nM.
In the case of `CCN1CCN(C(=O)c2sc(C(C)(C)C)cc2NC(=O)Nc2ccc(C)c(-c3ccc(CN4CCOCC4)nc3)c2)C(C)(C)C1=O`, the IC50 is below 100 nM.
Next, `CN(C)CCCOc1ccc(-c2cccc(NC(=O)Nc3sc(C(C)(C)C)cc3C(=O)N3CCNC(=O)C3(C)C)c2)cn1`: below 100 nM; `Cc1ccc(NC(=O)Nc2sc(C(C)(C)C)cc2C(=O)N2CCNC(=O)CC2)cc1-c1cccnc1`: below 100 nM.
Consider `Cc1ccc(NC(=O)Nc2sc(C(C)(C)C)cc2C(=O)N2CCNC(=O)C2(C)C)cc1-c1cc[n+]([O-])cc1`, for which the IC50 was below 100 nM.
In the case of `COc1ccc(-c2cc(NC(=O)Nc3sc(C(C)(C)C)cc3C(=O)N3CCN(C)C(=O)C3(C)C)cc(F)c2C)cn1`, the IC50 was below 100 nM.
Take `COc1ccc(-c2cc(NC(=O)Nc3sc(C(C)(C)C)cc3C(=O)N3CCNC(=O)C3(C)C)cc(F)c2C)cn1`: the IC50 was below 100 nM.
With `COc1ccc(-c2cc(C)cc(NC(=O)Nc3sc(C(C)(C)C)cc3C(=O)N3CCNC(=O)C3(C)C)c2)cn1`, the IC50 was below 100 nM.
`Cc1ccc(NC(=O)Nc2sc(C(C)(C)C)cc2C(=O)N2CCNC(=O)C2(C)C)cc1-c1ccc(N2CCOCC2)cn1` had an IC50 below 100 nM.
The value for `CCc1ccc(-c2cc(NC(=O)Nc3sc(C(C)(C)C)cc3C(=O)N3CCNC(=O)C3(C)C)ccc2C)cn1` was below 100 nM.
Compound `CCOc1ccc(-c2cc(NC(=O)Nc3sc(C(C)(C)C)cc3C(=O)N3CCN(C)C(=O)C3(C)C)ccc2C)cn1` displayed an IC50 below 100 nM.
In turn, `Cc1ccc(NC(=O)Nc2sc(C(C)(C)C)cc2C(=O)N2CCN(CCN(C)C)C(=O)C2(C)C)cc1-c1cccnc1` came in with an IC50 below 100 nM.
On to `COc1ccc(-c2cc(NC(=O)Nc3sc(C(C)(C)C)cc3C(=O)N3CCNC(=O)C3(C)C)c(F)cc2C)cn1`, for which the IC50 is below 100 nM.
`Cc1ccc(NC(=O)Nc2sc(C(C)(C)C)cc2C(=O)N2CCN(C)C(=O)C2(C)C)cc1-c1ccc(N2CCN(C)CC2)nc1` returned a half-maximal inhibitory concentration (IC50) below 100 nM.
Consider `Cc1ccc(NC(=O)Nc2cc(C(C)(C)C)sc2C(=O)N2CCNC(=O)C2(C)C)cc1-c1ccc(N2CCOCC2)nc1`, for which the IC50 is below 100 nM.
Consider `CCc1ccc(-c2cc(NC(=O)Nc3sc(C(C)(C)C)cc3C(=O)N3CCN(CCN(C)C)C(=O)C3(C)C)ccc2C)cn1`, for which the IC50 fell in the range of 100 to 1000 nM.
The value for `C#Cc1ccc(-c2cc(NC(=O)Nc3sc(C(C)(C)C)cc3C(=O)N3CCNC(=O)C3(C)C)ccc2C)cn1` was below 100 nM; that for `Cc1ccc(NC(=O)Nc2sc(C(C)(C)C)cc2C(=O)N2CCNC(=O)C2(C)C)cc1-c1ccc(N2CCC(N(C)C)C2)nc1` (stereo not drawn) was below 100 nM; that for `Cc1ccc(NC(=O)Nc2sc(C(C)(C)C)cc2C(=O)N2CCNC(=O)C2(C)C)cc1-c1ccc(OCCN(C)C)nc1` was below 100 nM.
`Cc1ccc(NC(=O)Nc2sc(C(C)(C)C)cc2C(=O)N2CCNC(=O)C2(C)C)cc1-c1ccc(N2CCN(C)CC2)cn1` returned an IC50 below 100 nM.
In turn, `Cc1ccc(NC(=O)Nc2sc(C(C)(C)C)cc2C(=O)N2CCN(C)C(=O)C2(C)C)cc1-c1ccc(CN2CCOCC2)cn1` gave an IC50 below 100 nM.
Consider `Cc1ccc(NC(=O)Nc2sc(C(C)(C)C)cc2C(=O)N2CCNC(=O)C2(C)C)cc1-c1ccc(N2CCN(C)CC2)nc1`, for which the IC50 was below 100 nM.
Next, `Cc1ccc(NC(=O)Nc2sc(C(C)(C)C)cc2C(=O)N2CCN(C)C(=O)C2(C)C)cc1-c1ccc(OC(C)C)nc1`: below 100 nM; `CC(C)(C)c1cc(C(=O)N2CCNC(=O)C2(C)C)c(NC(=O)Nc2cccc(-c3cnco3)c2)s1`: below 100 nM; `Cc1ccc(-c2ccc(N3CCOCC3)cn2)cc1NC(=O)Nc1cc(C(C)(C)C)sc1C(=O)N1CCNC(=O)C1(C)C`: below 100 nM.
Next, `Cc1ccc(NC(=O)Nc2cn(C(C)(C)C)nc2C(=O)N2CCN(C)C(=O)C2(C)C)cc1-c1ccc(C(C)C)nc1`: below 100 nM; `COc1ccc(NC(=O)Nc2sc(C(C)(C)C)cc2C(=O)N2CCNC(=O)C2(C)C)cc1-c1ccncc1`: below 100 nM; `COc1ccc(-c2cc(NC(=O)Nc3sc(C(C)(C)C)cc3C(=O)N3CCNC(=O)C3(C)C)ccc2C)cn1`: below 100 nM.
`Cc1ccc(NC(=O)Nc2sc(C(C)(C)C)cc2C(=O)N2CCN(C)C(=O)C2(C)C)cc1-c1ccc(C(C)O)nc1` (stereo not drawn): the IC50 was below 100 nM.
The value for `COc1ccc(-c2cc(NC(=O)Nc3sc(C(C)(C)C)cc3C(=O)N3CCN(C)C(=O)C3(C)C)c(F)cc2C)cn1` was below 100 nM.
Next, `Cc1ccc(-c2cc(NC(=O)Nc3sc(C(C)(C)C)cc3C(=O)N3CCN(C)C(=O)C3(C)C)ccc2C)cn1`: below 100 nM; `CC(=O)c1ccc(-c2cc(NC(=O)Nc3sc(C(C)(C)C)cc3C(=O)N3CCNC(=O)C3(C)C)ccc2C)cn1`: below 100 nM.
Take `Cc1ccc(NC(=O)Nc2cn(C(C)(C)C)nc2C(=O)N2CCN(C3CCN(C)C3)C(=O)C2(C)C)cc1-c1cccnc1` (stereo not drawn): the IC50 lay within 100 to 1000 nM.
With `Cc1ccc(NC(=O)Nc2sc(C(C)(C)C)cc2C(=O)N2CCN(C)C(=O)C2(C)C)cc1-c1ccc(C[N+]2([O-])CCOCC2)[n+]([O-])c1`, the half-maximal inhibitory concentration (IC50) lay in the range of 100 to 1000 nM.
`Cc1ccc(NC(=O)Nc2sc(C(C)(C)C)cc2C(=O)N2CCNC(=O)C2(C)C)cc1C#CCOC1CCOCC1` came in with a concentration for half-maximal inhibition (IC50) below 100 nM.
The compound `Cc1ccc(NC(=O)Nc2cc(C(C)(C)C)sc2C(=O)N2CCN(C)C(=O)C2(C)C)cc1-c1ccc(N2CCOCC2)nc1` returned an IC50 below 100 nM.
As to `CCc1ccc(-c2cc(NC(=O)Nc3cn(C(C)(C)C)nc3C(=O)N3CCN(C)C(=O)C3(C)C)cc(F)c2C)cn1`, the IC50 was below 100 nM.
`Cc1ccc(NC(=O)Nc2sc(C(C)(C)C)cc2C(=O)N2CCN(C)C(=O)C2(C)C)cc1-c1ccc(C(C)N2CCOCC2)nc1` (stereo not drawn) gave an IC50 below 100 nM.
Next, `Cc1ccc(NC(=O)Nc2sc(C(C)(C)C)cc2C(=O)N2CCNC(=O)C2(C)C)cc1-c1ncccn1`: below 100 nM.
With `Cc1nnc(-c2ccc(-c3cc(NC(=O)Nc4cc(C(C)(C)C)sc4C(=O)N4CCN(C)C(=O)C4(C)C)ccc3C)cn2)o1`, the IC50 was below 100 nM.
`CCNC(=O)c1ccc(-c2cc(NC(=O)Nc3cc(C(C)(C)C)sc3C(=O)N3CCN(C)C(=O)C3(C)C)ccc2C)cn1` gave an IC50 below 100 nM.
Consider `Cc1ccc(NC(=O)Nc2sc(C(C)(C)C)cc2C(=O)N2CCNC(=O)C2(C)C)cc1C#CCN1CCOCC1`, for which the IC50 was below 100 nM.
The value for `CCc1ccc(-c2cc(NC(=O)Nc3cc(C(C)(C)C)sc3C(=O)N3CCN(C)C(=O)C3(C)C)cc(F)c2C)cn1` was below 100 nM; that for `COc1ccc(-c2cc(NC(=O)Nc3cc(C(C)(C)C)sc3C(=O)N3CCN(C)C(=O)C3(C)C)ccc2C)cn1` was below 100 nM.
Next, `COCCNC(=O)c1ccc(-c2cc(NC(=O)Nc3sc(C(C)(C)C)cc3C(=O)N3CCN(C)C(=O)C3(C)C)ccc2C)cn1`: below 100 nM.
Compound `Cc1ccc(NC(=O)Nc2sc(C(C)(C)C)cc2C(=O)N2CCN(C)C(=O)C2(C)C)cc1-c1ccc(-n2cccn2)nc1` showed an IC50 below 100 nM.
The value for `CCc1ccc(-c2cc(NC(=O)Nc3cn(C4(C)CCCC4)nc3C(=O)N3CCNC(=O)C3(C)C)ccc2C)cn1` was below 100 nM; that for `Cc1ccc(NC(=O)Nc2cc(C(C)(C)C)oc2C(=O)N2CCNC(=O)C2(C)C)cc1-c1ccc(OCCN(C)C)nc1` was below 100 nM; that for `CC(C)(C)c1cc(C(=O)N2CCNC(=O)C2(C)C)c(NC(=O)Nc2cccc(-c3ccncc3)c2)s1` was below 100 nM.
Take `Cc1ccc(NC(=O)Nc2cc(C(C)(C)C)sc2C(=O)N2CCNC(=O)C2(C)C)cc1-c1ccc(CN2CCOCC2)nc1`: the IC50 was below 100 nM.
Regarding `Cc1ccc(NC(=O)Nc2cc(C(C)(C)C)sc2C(=O)N2CCNC(=O)C2(C)C)cc1-c1ccc(N2CCOCC2)cn1`, the concentration for half-maximal inhibition (IC50) is below 100 nM.
`Cc1ccc(NC(=O)Nc2sc(C(C)(C)C)cc2C(=O)N2CCC(=O)N(C)CC2)cc1-c1ccc(N2CCOCC2)cn1` had a half-maximal inhibitory concentration (IC50) below 100 nM.
Compound `Cc1ccc(NC(=O)Nc2sc(C(C)(C)C)cc2C(=O)N2CCNC(=O)C2(C)C)cc1-c1ccc(C(=O)N(C)C)nc1` displayed a concentration for half-maximal inhibition (IC50) below 100 nM.
As for `Cc1ccc(NC(=O)Nc2sc(C(C)(C)C)cc2C(=O)N2CCN(C)C(=O)C2(C)C)cc1-c1ccc(CN2CCOCC2)nc1`, the IC50 is below 100 nM.
In the case of `Cc1ccc(NC(=O)Nc2sc(C(C)(C)C)cc2C(=O)N2CCNC(=O)C2(C)C)cc1-c1c(C)noc1C`, the 50% inhibitory concentration (IC50) is below 100 nM.
`CCc1ccc(-c2cc(NC(=O)Nc3sc(C(C)(C)C)cc3C(=O)N3CCNC(=O)C3(C)C)cc(F)c2C)cn1` came in with a half-maximal inhibitory concentration (IC50) below 100 nM.
For the compound `CCOc1ccc(-c2cc(NC(=O)Nc3cn(C(C)(C)C)nc3C(=O)N3CCN(C)C(=O)C3(C)C)ccc2C)cn1`, the IC50 was below 100 nM.
As for `Cc1ccc(NC(=O)Nc2sc(C(C)(C)C)cc2C(=O)N2CCNC(=O)C2(C)C)cc1-c1ccc(CN2CCOCC2)cn1`, the IC50 is below 100 nM.
Regarding `Cc1ccc(NC(=O)Nc2sc(C(C)(C)C)cc2C(=O)N2CCNC(=O)C2(C)C)cc1-c1ccc(N(C)C)nc1`, the half-inhibitory concentration (IC50) was below 100 nM.
Take `CNC(=O)c1ccc(-c2cc(NC(=O)Nc3sc(C(C)(C)C)cc3C(=O)N3CCNC(=O)C3(C)C)ccc2C)cn1`: the IC50 was below 100 nM.
For the compound `Cc1nnc(-c2ccc(-c3cc(NC(=O)Nc4sc(C(C)(C)C)cc4C(=O)N4CCN(C)C(=O)C4(C)C)ccc3C)cn2)o1`, the IC50 was below 100 nM.
Compound `Cc1ccc(NC(=O)Nc2sc(C(C)(C)C)cc2C(=O)N2CCNS(=O)(=O)CC2)cc1-c1ccc(CN2CCOCC2)nc1` gave an IC50 below 100 nM.
As for `Cc1ccc(-c2ccc(N3CCOCC3)nc2)cc1NC(=O)Nc1sc(C(C)(C)C)cc1C(=O)N1CCNC(=O)C1(C)C`, the IC50 is below 100 nM.
Turning to `Cc1ccc(NC(=O)Nc2sc(C(C)(C)C)cc2C(=O)N2CCNC(=O)C2(C)C)cc1-c1ccc(OC2CCOCC2)nc1`, the IC50 was below 100 nM.
`Cc1ccc(NC(=O)Nc2sc(C(C)(C)C)cc2C(=O)N2CCNC(=O)C2(C)C)cc1-c1ccc(OCCN2CCCCC2)nc1` had an IC50 below 100 nM.
`Cc1ccc(NC(=O)Nc2sc(C(C)(C)C)cc2C(=O)N2CCN(C)C(=O)C2(C)C)cc1-c1ccc(C(N)=O)nc1`: the IC50 was below 100 nM.
The value for `Cc1ccc(NC(=O)Nc2sc(C(C)(C)C)cc2C(=O)N2CCNC(=O)C2(C)C)cc1C#CCN1CCN(C)CC1` was below 100 nM; that for `Cc1ccc(NC(=O)Nc2sc(C(C)(C)C)cc2C(=O)N2CCNC(=O)C2(C)C)cc1-c1ccc(OCCCN2CCOCC2)nc1` was below 100 nM.

(Values after the Kinase Knowledgebase extract (Sharma et al. 2016).)
